Reference: patent US9090618B2, “Substituted benzimidazole-type piperidine compounds and uses thereof” (priority 2012, dated 2015)

target: human opioid receptor-like (ORL-1) (Homo sapiens (Human), UniProt P41146); experiment: In vitro ORL-1 receptor [35S]GTPγS functional assay; format: biochemical
Sequence (P41146 whole entry): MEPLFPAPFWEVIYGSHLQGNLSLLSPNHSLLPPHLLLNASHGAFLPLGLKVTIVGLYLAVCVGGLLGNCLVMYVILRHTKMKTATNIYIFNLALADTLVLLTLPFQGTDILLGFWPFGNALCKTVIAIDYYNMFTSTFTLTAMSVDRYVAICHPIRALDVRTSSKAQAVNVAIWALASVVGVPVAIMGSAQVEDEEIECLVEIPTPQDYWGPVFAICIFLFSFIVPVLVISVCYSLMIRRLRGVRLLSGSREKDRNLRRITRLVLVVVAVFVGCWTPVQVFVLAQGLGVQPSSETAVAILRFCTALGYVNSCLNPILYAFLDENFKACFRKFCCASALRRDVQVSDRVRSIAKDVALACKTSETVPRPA

| Compound | EC50 |
| --- | --- |
| O=C(O)CN1CCC[C@@H]1c1nc2ccccc2n1[C@H]1C[C@H]2CCC[C@@H](C1)N2C1CCCCCCCCC1 [E30c(ii), 2-((R)-2-(1-((1R,3r,5S)-9-cyclodecyl-9-azabicyclo[3.3.1]nonan-3-yl)-1H-benzo[d]imidazol-2-yl)pyrrolidin-1-yl)acetic acid] | 336 ± 27 nM |
| O=C(O)CCN1CC[C@H](c2nc3ccccc3n2[C@H]2C[C@H]3CCC[C@@H](C2)N3[C@@H]2C[C@@H]3CCCC[C@@H](C3)C2)C1 [H32d(ii), 3-((S)-3-(1-((1R,3R,5S)-9-((1R,6S,8s)-bicyclo[4.3.1]decan-8-yl)-9-azabicyclo[3.3.1]nonan-3-yl)-1H-benzo[d]imidazol-2-yl)pyrrolidin-1-yl)propanoic acid] | 160 ± 35 nM |
| O=C(O)CN1CCC(c2nc3ccccc3n2[C@H]2C[C@H]3CCC[C@@H](C2)N3[C@@H]2C[C@@H]3CCCC[C@@H](C3)C2)CC1 [ZA07, 2-(4-(1-((1R,3R,5S)-9-((1R,6S,8s)-bicyclo[4.3.1]decan-8-yl)-9-azabicyclo[3.3.1]nonan-3-yl)-1H-benzo[d]imidazol-2-yl)piperidin-1-yl)acetic acid] | 140 ± 17 nM |
| O=C(O)CCN1CCC(c2nc3ccccc3n2[C@H]2C[C@H]3CCC[C@@H](C2)N3[C@@H]2C[C@@H]3CCCC[C@@H](C3)C2)CC1 [ZA08, 3-(4-(1-((1R,3R,5S)-9-((1R,6S,8s)-bicyclo[4.3.1]decan-8-yl)-9-azabicyclo[3.3.1]nonan-3-yl)-1H-benzo[d]imidazol-2-yl)piperidin-1-yl)propanoic acid] | 253 ± 20 nM |
| COCCOCCOCCN1CCC[C@@H](c2nc3ccccc3n2[C@H]2C[C@H]3CCC[C@@H](C2)N3[C@H]2C[C@@H]3CCC[C@@H](C3)C2)C1 [ZA11, (1R,1′R,3r,3′R,5S,5′S)-3′-(2-((R)-1-(2-(2-(2-methoxyethoxy)ethoxy)ethyl)piperidin-3-yl)-1H-benzo[d]imidazol-1-yl)-9′-aza-3,9′-bi(bicyclo[3.3.1]nonane)] | 502 ± 99 nM |
| COCCOCCOCCN1CCC[C@H](c2nc3ccccc3n2[C@H]2C[C@H]3CCC[C@@H](C2)N3[C@H]2C[C@@H]3CCC[C@@H](C3)C2)C1 [ZA12, (1R,1′R,3r,3′R,5S,5′S)-3′-(2-((S)-1-(2-(2-(2-methoxyethoxy)ethoxy)ethyl)piperidin-3-yl)-1H-benzo[d]imidazol-1-yl)-9′-aza-3,9′-bi(bicyclo[3.3.1]nonane)] | 390 ± 34 nM |
| O=C(O)C1CCN(Cc2nc3ccccc3n2[C@H]2C[C@H]3CCC[C@@H](C2)N3[C@H]2C[C@@H]3CCC[C@@H](C3)C2)CC1 [ZA23, 1-((1-((1R,1′R,3r,3′R,5S,5′S)-[3,9′-bi(9′-azabicyclo[3.3.1]nonan)]-3′-yl)-1H-benzo[d]imidazol-2-yl)methyl)piperidine-4-carboxylic acid] | > 20000 nM |
| c1ccc2c(c1)nc(-c1nnn[nH]1)n2[C@H]1C[C@H]2CCC[C@@H](C1)N2[C@@H]1C[C@@H]2CCCC[C@@H](C2)C1 [ZA39, 1-((1R,3R,5S)-9-((1R,6S,8r)-bicyclo[4.3.1]decan-8-yl)-9-azabicyclo[3.3.1]nonan-3-yl)-2-(1H-tetrazol-5-yl)-1H-benzo[d]imidazole] | > 20000 nM |
| COc1cnc(-c2nc3ccccc3n2[C@H]2C[C@H]3CCC[C@@H](C2)N3[C@@H]2C[C@@H]3CCCC[C@@H](C3)C2)cn1 [ZA42, 1-((1R,3R,5S)-9-((1R,6S,8r)-bicyclo[4.3.1]decan-8-yl)-9-azabicyclo[3.3.1]nonan-3-yl)-2-(5-methoxypyrazin-2-yl)-1H-benzo[d]imidazole] | > 20000 nM |
| COc1cnc(-c2nc3ccccc3n2[C@H]2C[C@H]3CCC[C@@H](C2)N3[C@H]2C[C@@H]3CCC[C@@H](C3)C2)cn1 [ZA63, (1R,1′R,3r,3′R,5S,5′S)-3′-(2-(5-methoxypyrazin-2-yl)-1H-benzo[d]imidazol-1-yl)-9′-aza-3,9′-bi(bicyclo[3.3.1]nonane)] | > 20000 nM |
| O=c1cc(-c2nc3ccccc3n2[C@H]2C[C@H]3CCC[C@@H](C2)N3[C@@H]2C[C@@H]3CCCC[C@@H](C3)C2)[nH]c(=O)[nH]1 [ZA71, 6-(1-((1R,3R,5S)-9-((1R,6S,8r)-bicyclo[4.3.1]decan-8-yl)-9-azabicyclo[3.3.1]nonan-3-yl)-1H-benzo[d]imidazol-2-yl)pyrimidine-2,4(1H,3H)-dione] | > 20000 nM |
